Where a name gives a salt, the structure may show the parent alone.
Legend:
[1] = test system: patients with stable COPD; assay: BCSS (breathlessness, cough and sputum score) change from baseline in Viozan clinical trials, stratified by ADRB2 haplotype; assay type: in vivo, human
Source text: (§1) Samples for genotyping were taken from 2450 patients recruited in four Viozan™ phase III clinical trials, namely SC-397-5097, SC-397-5098, SC-397-5099 and SC-397-5163. The patient population included male and female patients, aged 40 to 80 years, with stable COPD, symptoms for ≧2 years, and a smoking history of at least 15 pack years. […] Further details about the patient population, and the study designs, are described in Laursen et al. Respiratory Medicine (2003), Vol 97, Suppl A, S23-S33. Participation in the genetics sub-study was voluntary. Patients gave separate written informed consent for the genetic analysis. Patients all consented to provide DNA for use in studying the response to Viozan™. Viozan™ is a dual agonist, targeting the β2-adrenergic receptor and the […] genes, developed for the treatment of COPD (Rennard, 2003, Respiratory Medicine, Vol 97, Suppl A, S1-S2).
Changes in COPD symptoms were assessed using the BCSS (breathlessness, cough and sputum score), also referred to as the TSS (total symptom score). Each symptom, that is breathlessness, cough and sputum, was evaluated daily by the patient and recorded in a diary using a 5-point Likert scale (ranging from 0 to 4, with the higher values indicating more sever symptoms). The three item scores were summed to calculate the BCSS total score, resulting in a value between 0 and 12. The reliability and validity of the BCSS for evaluating symptoms in COPD is discussed in Leidy et al, 2003, Respiratory Medicine, Vol 97, SupplA, S59-S70. A mean change of ±1 point on the BCSS total score represents a substantial improvement in symptom severity for patients with moderate to severe COPD (Celli et al. Respiratory Medicine, (2003) Vol 97, SupplA, S35-43).

[2] = test system: patients with stable COPD; assay: Serial and pre-dose FEV1 (spirometry) in Viozan phase III clinical trials, stratified by ADRB2 haplotype; assay type: in vivo, human
Source text: as §1
Pre- and post-dose FEV1 (forced expiratory volume in 1 second), the volume of air exhaled in the first second of the FVC manoeuvre (expressed in litres), measurements were taken at each study visit for all patients, as described in the clinical study protocols. Spirometry measurements were performed using a standard technique at each centre. Details about the spirometer used and the calibration records were provided by each centre. After resting for 15 minutes, slow vital capacity (SVC), forced vital capacity (FVC) and FEV1 were measured for at least three separate manoeuvres. The greatest values for each parameter were recorded.
Serial measurements were taken on day 1 (studies SC-397-5097 and SC-397-5098), weeks 8 and 12 (SC-397-5098) and weeks 14 and 26 (SC-397-5097). The AUC0-8, mean FEV1 at 8 hrs and mean maximum change from pre-dose (FEV1 max) were calculated. These measurements were used to investigate the bronchodilator properties of Viozan™, a long-acting β2-agonist.
Because serial FEV1 measurements were available for only a small number of subjects, and to increase the power of the analyses, the data was subsequently analysed in two subgroups (‘binning’) based on the haplotype pair of each patient; “C” haplotypes (i.e. patients having at least one copy of the ‘C’ haplotype) and “non-C” haplotype (i.e. patients having no ‘C’ haplotype). ‘C’ haplotype group included patients with haplotypes AC, BC and CC, whilst the non-C haplotype group included subjects with haplotypes AA, BB and AB. For the ‘binned’ haplotype analyses, subjects with one or more copies of haplotype D and E were not included, as there were few subjects with these haplotype pairs.
Assessment of the relationship between ADRB2 haplotype and the long-term FEV1 response, was achieved by comparing the pre-treatment and pre-dose baselines. The “pre-treatment” FEV1 baseline is for no prior exposure to the study drug, and was measured at day 1 (visit 2), immediately prior to treatment with Viozan™. The “pre-dose” FEV1 baseline is that measured prior to administration of drug on that day at subsequent visits, during the course of the trials, i.e. at weeks 8 and 12 (SC-397-5098) and weeks 14 and 26 (SC-397-5097). […] Observations are consistent with a trend for prolonged bronchodilation in the C haplotype subgroup and better overall long-term lung function in response to regular treatment with Viozan™ and long acting β2-agonists.
Analysis of the serial FEV1 response between first treatment and following 3 months of Viozan™ treatment was determined by subtracting the pre-treatment baseline (visit 2) from the absolute FEV1 measurements collected at visit 2 (day 1) and the combined data for week 12 (SC-397-5098) and week 14 (SC-397-5097). […] Serial FEV1 response at day 1 (visit 2) overlaps with that at 3 months post treatment, for patients in the ‘C’ haplotype subgroup. A similar response is observed for the non-C haplotype group at day 1 (visit 2). However, the serial FEV1 response, in the non-C haplotype group, appears to be reduced after 3 months of treatment. […]

asthmatics = details: cited from earlier work
[3] = 3 mth (SC-397-5098) and 6 mth (SC-397-5097) treatment, trend
[4] = first exposure, trials SC-397-5097 and SC-397-5098

Structure (SMILES)	patients with a clinically significant BCSS response compared to mean placebo response ([1]; C-haplotype group share of the clinical trial population)	BCSS response in C haplotype sub-group versus non-C haplotype group and versus placebo ([1]; change from baseline to final 4 weeks, combined SC-397-5163 and SC-397-5098)	reduction in mean BCSS, 'C' Haps (AC, BC, CC) compared to 'Non-C' Haps (AA, BB, BA) ([1]; combined studies SC-397-5163 and SC-397-5098)	BCSS response in C haplotype sub-group versus non-C haplotype subgroup ([1]; study SC-397-5163, 3 month, C Haps N=84, non-C Haps N=201)	difference in mean BCSS change from baseline to final 4 weeks of treatment, Viozan versus placebo ([1]; unstratified patient population)	change in baseline (trough) FEV1 over the course of the trials, C-haplotype sub-group [2, 3]	change in baseline (trough) FEV1 over the course of the trials, subjects lacking C-haplotype [2, 3]	serial FEV1 response after 3 months of treatment, non-C haplotype group ([2]; change from pre-treatment baseline, combined week 12 and week 14 data, versus day 1)	time after treatment at which FEV1 response was observed [2, 4] [min]	time for which FEV1 continued to increase post treatment [2, 4]	time of maximum FEV1 increase post study drug [2, 4]	serial FEV1 response, patients with BB haplotype pair ([2]; first exposure, BB (N=13), compared with other haplotype pairs)	serial FEV1 response, patients with BC haplotype ([2]; first exposure, BC (N=21))	difference in FEV1 between subgroups stratified by ADRB2 haplotype pair ([2]; serial FEV1 at first exposure, haplotype pairs AA, AC, BA, BB, BC)	lung function response, 2/2 haplotype (asthmatics; 2/2 corresponds to AA)	lung function response, 4/4 haplotype (asthmatics; 4/4 corresponds to BB)	lung function response, 4/6 haplotype (asthmatics; 4/6 corresponds to BC)
O=c1[nH]c2c(O)ccc(CCNCCS(=O)(=O)CCCOCCc3ccccc3)c2s1 [Viozan, Sibenadet HCl]	approximately 30%	significantly better	up to 0.6	significantly better	neither statistically significant, nor considered to be of clinical importance	increase	decrease slightly	reduced	5	up to 2 hours	one to two	smaller	greatest response	approximately 100 cc			
CC(C)(C)NCC(O)c1ccc(O)c(CO)c1 (centres unmarked) [albuterol, albuterol sulphate]															intermediate response	lowest response	best response

Source: patent US20080176224A1, “Methods for Identifying a Patient as a Candidate for Treatment with a Long Acting Beta Agonist and for Predicting a Patient's Response to Long Acting Beta2 Agonist Therapy by Analysing Polymorphisms in the Beta2-Adrenergic Receptor Gene” (ASTRAZENECA AB, priority 2004, published 2008)
